Several values for one entry are separate records, joined by “and”; a condition that tells them apart may be missing. Identical values can stand only once.
Test system: GL3 luciferase gene
Assay: Evaluation of each siRNA using Dual-Luc reporter system (expression-suppressive activity)
Format: cell-based, Human
Conditions: for suppressive activity against luciferase expression compared with control RNA: Dual-Luc reporter system, HCT116 cells, comparison drawn from Table 1; for IC50: HCT116 cells transfected with vector OFF#085 or OFF#086, siRNA reverse transfection with Lipofectamine RNAiMAX, two-night culture, luciferase activity (Renilla/firefly), Dual-Glo, read-out: 50% inhibition concentration
Procedure: Each siRNA was evaluated using a Dual-Luc reporter system as described below.
A restriction enzyme sequence was added to a sequence containing a 19-base sequence complementary to the antisense strand of siRNA against the GL3 luciferase gene (Elbashir S M et al., Nature, Vol. 411, 24 May 2001, 494-498), and its 5′-flanking 10 bases and 3′-flanking 10 bases. The resulting sequence was incorporated into the XhoI/NotI site of a psiCHECK2 plasmld (Promega KK) either in a forward direction (sequence A) or in a reverse direction (sequence B) to construct vectors for the expression of firefly Iuciferase and Renilla luciferase, OFF#085 and OFF#086, respectively.
Human colon cancer cell line HCT116 cells (ATCC) were inoculated at a density of 3×10^6 cells/10 ml/75 cm^2 flask. After overnight culture at 37° C. in 5% CO2, the cells were transfected with the vector OFF#085 or OFF#086 obtained in the preceding paragraph 1) using FuGENE 6 (F. Hoffmann-La Roche Ltd.) and further cultured overnight. Each siRNA synthesized in Example 5 and Comparative Example was diluted with PBS into two serial dilutions of 3.3 nM (final) and 0.0043 nM or 12 serial dilutions from 10 nM to 56 fM and used in reverse transfection of 1.6×10^4 cells/100 μL/well using Lipofectamine RNAiMAX reagent (Invitrogen Corp.). After two-night culture, firefly luciferase activity and Renilla luciferase activity were measured using Dual-Glo Luc Assay kit (Promega KK) according to the attached document. When the luciferase activity (Renilla/firefly) of cells reverse-transfected with 10 nM BLOCK-iT™ Alexa Fluor® Red Fluorescent Oligo (Invitrogen Corp.) was defined as 100%, the luciferase activity of the cells transfected with each siRNA was calculated. The IC50 value was calculated using GraphPad Prism 5.

Substance | suppressive activity against luciferase expression compared with control RNA | IC50
siRNA (1): siRNA of sense strand SEQ ID NO: 1 and antisense strand SEQ ID NO: 2 containing one formula (II) partial structure U(K) induced from compound 11 (sense CUUACGCUGAGUACUUCGATT; antisense UCGAAGUACUCAGCGUAAGTT; chemistry not fully specified) | higher suppressive activity | 0.007 nM
Control RNA: Control siRNA of sense strand SEQ ID NO: 4 and antisense strand SEQ ID NO: 5, free from compound 11 or 22 (sense CUUACGCUGAGUACUUCGATT; antisense UCGAAGUACUCAGCGUAAGTT; chemistry not fully specified) [reference compound] |  | 0.024 nM and 0.012 nM
siRNA (2): siRNA of sense strand SEQ ID NO: 1 and antisense strand SEQ ID NO: 3 containing one formula (II) partial structure U(K2) induced from compound 22 (sense CUUACGCUGAGUACUUCGATT; antisense UCGAAGUACUCAGCGUAAGTT; chemistry not fully specified) | higher suppressive activity | 0.009 nM
